Test results published in patent publication US4400517A, “Phosphoric esters derived from 1,2,4-triazole having an insecticidal, nematocidal and acaricidal action, and their preparation” (priority 1976, dated 1983).
Where two headings read alike, the source gives them in different places.

Tests used:
[1] = test system: Locusta M.; test: Activity on Locusta M.; conditions: in vivo
[2] = test system: Tetranychus urticae; test: Biological activity on adults of Tetranychus urticae (Acari); format: in vivo; conditions: 24 h
Description: (5) Biological activity on adults of Tetranychus urticae (Acari)
Discs of bean leaves were infested with adult acari and then sprinkled with an aqueous dispersion of the products under examination (see Tables 4 and 5).
The mortality percentage was determined after 24 hours from treatment (untreated leaf discs, mortality=0).

[3] = test system: Pieris brassicae; test: Biological activity on Pieris brassicae (Lepidoptera); format: in vivo; conditions: 48 h
Description: (2) Biological activity on Pieris brassicae (Lepidotera)
Cut-off cauliflower leaves were sprinkled with an aqueous dispersion of the products under examination (see TABLE 5).
After drying, the leaves were infested with 5-day old larvae. The percentage of mortality of the larvae (untreated leaves=0) was determined after 48 hours from treatment.

[4] = test system: Leptinotarsa decemlineata; test: Biological activity on Leptinotarsa decemlineata (Coleoptera); format: in vivo; conditions: 48 h
Description: (3) Biological activity on Leptinotarsa decemlineata (Coleoptera)
Small potato plants grown in pots were infested with 4-day old larvae, and were then sprinkled with an aqueous dispersion of the products under examination (see Tables 4 and 5).
The mortality percentage (untreated small plants=0) was determined after 48 hours from treatment.

[5] = test system: Culex pipiens; test: Biological activity on Culex pipiens larvae (Diptera); format: in vivo; conditions: 24 h
Description: (4) Biological activity on Culex pipiens (Diptera)
Into glasses containing an aqueous dispersion of the products under examination (see Tables 4 and 5) there were introduced mosquito larvae of third and fourth age.
The mortality percentage of the larvae (glasses containing pure water=0) was determined after 24 hours from treatment.

[6] = test system: Blatta orientalis; test: Biological activity on Blatta orientalis (Ortoptera); format: in vivo; conditions: Blatta orientalis, 48 h, read-out: Activity (mortality class), Blatta O.
Description: (10) Biological activity on Blatta orientalis (Ortoptera)
The bottom and walls of glass crystallizers were treated uniformly with an acetonic solution of the products under examination (see Tables 4 and 5). After evaporation of the solvent, into each crystallizer were introduced ten 80-100 days old neanides. The crystallizers were then closed with a metal net cover. After 24 hours from the start of the treatment, the insects were transferred to similar untreated crystallizers, and there were appropriately nourished in conventional manner.
The percentage of mortality (untreated insects=0) was determined after 48 hours from the start of the treatment.

[7] = test system: Spodoptera littoralis; test: Biological activity on Spodoptera littoralis (Lepidoptera); format: in vivo; conditions: 48 h
Description: (7) Biological activity on Spodoptera littoralis (Lepidoptera)
Cut tobacco leaves were sprinkled with an aqueous dispersion of the products under examination (see Tables 4 and 5).
After drying, the leaves were infested with 5-day old larvae.
The percentage of mortality of the larvae was determined after 48 hours from treatment (untreated leaves, mortality=0).

[8] = test system: Macrosiphum euphorbiae; test: Biological activity on Macrosiphum euphorbiae (Aphides); format: in vivo; conditions: potato plants, 24 h
Description: (1) Biological activity on Macrosiphum euphorbiae (Aphides)
Potato plants grown in pots were infested with adult females of aphides and, after several hours, were sprinked with an aqueous dispersion of the products under examination (see TABLE 5).
The percentage of mortality was assessed after 24 hours after the treatment (untreated plants=0).

[9] = test system: Tetranychus urticae; test: Biological activity on Tetranychus urticae eggs (Acari); format: in vivo; conditions: bean leaf discs, 144 h
Description: (6) Biological activity on Tetranychus urticae (Acari)
Small discs of bean leaves were infested with Acari eggs and were then sprinkled with an aqueous dispersion of the products under examination (see Table 5).
The mortality percentage was determined after 6 days from treatment (untreated leaf discs, mortality=0).

[10] = read-out: Activity (mortality class), Tetranychus U. (adults)
[11] = read-out: Activity (mortality class), Pieris B.
[12] = read-out: Activity (mortality class), Leptinotarsa D.
[13] = read-out: Activity (mortality class), Culex P. (larvae)
[14] = read-out: Activity (mortality class), Spodoptera L.
[15] = 1%o, Table 5, read-out: Activity (mortality class), Tetranychus U. (adults)
[16] = 1%o, Table 5, read-out: Activity (mortality class), Pieris B.
[17] = 1%o, Table 5, read-out: Activity (mortality class), Leptinotarsa D.
[18] = 1%o, Table 5, read-out: Activity (mortality class), Spodoptera L.
[19] = 0.02 ppm, Table 5, read-out: Activity (mortality class), Culex P. (larvae)
[20] = 2 ppm, Table 5, read-out: Activity (mortality class), Culex P. (larvae)
[21] = 0.01%o, Table 5, read-out: Activity (mortality class), Pieris B.
[22] = 0.01%o, Table 5, read-out: Activity (mortality class), Tetranychus U. (adults)
[23] = 0.05%o, Table 5, read-out: Activity (mortality class), Leptinotarsa D.
[24] = 0.05%o, Table 5, read-out: Activity (mortality class), Spodoptera L.

| SMILES | mortality at 0.1 % [2, 15] [%] | mortality at 0.1 % [3, 16] [%] | mortality at 0.1 % [4, 17] [%] | mortality at 0.1 % [7, 18] [%] | mortality at 0.02 ppm [5, 19] [%] | mortality at 2 ppm [5, 20] [%] | mortality at 1 g/m2 ([6]; 1 g/m^2, Table 5) [%] | mortality at 0.001 % [3, 21] [%] | mortality at 0.01 g/m2 ([6]; 0,01 g/m^2, Table 5) [%] | mortality at 0.001 % [2, 22] [%] | mortality at 0.005 % [4, 23] [%] | mortality at 0.005 % [7, 24] [%] | further results |
| --- | --- | --- | --- | --- | --- | --- | --- | --- | --- | --- | --- | --- | --- |
| CC=Cc1nc(OP(=S)(OCC)OCC)n(C)n1 [M 8119] | – | – | – | – | – | – | – | – | – | – | – | – | Activity (mortality class), Locusta M. [1]: ++ (100% of mortality); mortality at 0.001 % [2, 10]: 70 to 99%; mortality at 0.001 % [3, 11]: 10 to 69%; mortality at 0.005 % [4, 12]: 10 to 69%; mortality at 0.02 ppm [5, 13]: 0 to 9%; mortality at 0.01 g/m2 [6]: 100%; mortality at 0.005 % [7, 14]: 10 to 69% |
| CCOP(=S)(OCC)Oc1nc(C(C)OC)nn1-c1ccccc1 (stereo not shown) [M 8167] | 100 | 100 | 100 | 100 | – | – | – | – | – | – | – | – | Activity (mortality class), Macrosiphum E. [8]: + (70-99% of mort.); mortality at 2 ppm [5, 13]: 100%; Activity (mortality class), Tetranychus U. (eggs) [9]: ++ (100% of mortality) |
| CCOP(=S)(OCC)Oc1nc(C(=O)CSC)nn1-c1ccccc1 [M 8169] | – | – | – | – | – | – | – | – | – | – | – | – | mortality at 0.1 % [2, 10]: 100%; mortality at 0.1 % [3, 11]: 100%; Activity (mortality class), Macrosiphum E. [8]: ± (10-69% of mort.); mortality at 0.1 % [4, 12]: 100%; mortality at 2 ppm [5, 13]: 100%; mortality at 0.1 % [7, 14]: 10 to 69%; Activity (mortality class), Tetranychus U. (eggs) [9]: ++ (100% of mortality) |
| CCOP(=S)(OCC)Oc1nc(C(C)SC)nn1-c1ccccc1 (stereo not shown) [M 8170] | – | – | – | – | – | – | – | – | – | – | – | – | Activity (mortality class), Locusta M. [1]: ++ (100% of mortality); mortality at 0.1 % [2, 10]: 100%; mortality at 0.1 % [3, 11]: 100%; Activity (mortality class), Macrosiphum E. [8]: + (70-99% of mort.); mortality at 0.1 % [4, 12]: 100%; mortality at 2 ppm [5, 13]: 100%; mortality at 0.1 % [7, 14]: 70 to 99%; Activity (mortality class), Tetranychus U. (eggs) [9]: ++ (100% of mortality) |
| CCOP(=S)(OCC)Oc1nc(C=C(Br)Br)nn1C [M 8308] | 100 | 100 | 100 | 100 | 100 | 100 | 100 | – | – | – | – | – | – |
| CCOP(=S)(OCC)Oc1nc(C=Cc2ccccc2)nn1C [M 8332] | 100 | 100 | 70 to 99 | 100 | – | 100 | 100 | 10 to 69 | 100 | – | – | – | – |
| CCOP(=S)(OCC)Oc1nc(C=C(Cl)Cl)nn1C(C)C [M 8450] | – | – | – | – | 100 | – | – | 100 | 70 to 99 | 100 | 10 to 69 | 100 | – |
| CCCCn1nc(C=C(Cl)Cl)nc1OP(=S)(OCC)OCC [M 8474] | – | – | – | – | 100 | – | – | 100 | 0 to 9 | 0 to 9 | 100 | 100 | – |
| C=Cc1nc(OP(=S)(OCC)OCC)n(C)n1 [M 8476] | – | – | – | – | – | – | – | – | 100 | 100 | – | – | Activity (mortality class), Locusta M. [1]: ++ (100% of mortality); mortality at 0.02 ppm [5, 13]: 10 to 69% |
| CCCCn1nc(C=C(Cl)Cl)nc1OP(=S)(OC)OC [M 8477] | 100 | 100 | 100 | 100 | – | 100 | 100 | – | – | – | – | 10 to 69 | – |
| CCOP(=S)(OCC)Oc1nc(C=C(C)C)nn1C [M 8483] | – | – | – | – | 10 to 69 | – | – | – | – | 100 | 70 to 99 | 10 to 69 | mortality at 0.001 % [3, 11]: 10 to 69%; mortality at 0.01 g/m2 [6]: 100% |
| CC=Cc1nc(OP(=S)(OCC)OCC)n(CCCC)n1 [M 8497] | – | – | – | – | 0 to 9 | – | – | 70 to 99 | 10 to 69 | 10 to 69 | 100 | 0 to 9 | – |
| CCOP(=S)(OCC)Oc1nc(C=C(Cl)Cl)nn1CC(C)C [M 8498] | – | – | – | – | 70 to 99 | – | – | 100 | 10 to 69 | 10 to 69 | 10 to 69 | 100 | – |
| COP(=S)(OC)Oc1nc(C=C(Cl)Cl)nn1C(C)C [M 8499] | – | – | – | – | 10 to 69 | – | – | 10 to 69 | 10 to 69 | 10 to 69 | 0 to 9 | 100 | – |
| CCCOP(=S)(OCCC)Oc1nc(C=C(Cl)Cl)nn1C(C)C [M 8500] | 10 to 69 | 100 | 100 | 10 to 69 | – | 70 to 99 | 0 to 9 | 10 to 69 | – | – | – | – | – |
| CCCC=C(CC)c1nc(OP(=S)(OCC)OCC)n(C)n1 [M 8591] | 100 | 100 | 100 | 100 | – | 100 | 100 | – | – | 100 | – | – | – |
| CCOP(=S)(OCC)Oc1nc(C=C(Cl)OC)nn1C [M 8592] | 100 | 100 | 100 | 100 | 10 to 69 | 100 | 100 | 100 | 100 | 100 | 100 | 100 | – |
| C=C(C)c1nc(OP(=S)(OCC)OCC)n(C)n1 [M 8593] | – | – | – | – | – | – | – | – | – | – | – | – | mortality at 0.001 % [2, 10]: 10 to 69%; mortality at 0.1 % [2, 10]: 100%; mortality at 0.1 % [3, 11]: 100%; Activity (mortality class), Macrosiphum E. [8]: ++ (100% of mortality); mortality at 0.1 % [4, 12]: 100%; mortality at 0.02 ppm [5, 13]: 10 to 69%; mortality at 2 ppm [5, 13]: 100%; mortality at 0.01 g/m2 [6]: 70 to 99%; mortality at 1 g/m2 [6]: 100%; mortality at 0.1 % [7, 14]: 100%; Activity (mortality class), Tetranychus U. (eggs) [9]: ± (10-69% of mort.) |
| CCOP(=S)(OCC)Oc1nc(C=C(Cl)SC)nn1C [M 8805] | 100 | – | 100 | – | 100 | 100 | – | – | – | 100 | 100 | – | mortality at 0.001 % [3, 11]: 10 to 69%; mortality at 0.1 % [3, 11]: 100%; mortality at 0.01 g/m2 [6]: 10 to 69%; mortality at 1 g/m2 [6]: 100%; mortality at 0.005 % [7, 14]: 100%; mortality at 0.1 % [7, 14]: 100% |
| CCOP(=S)(OCC)Oc1nc(C=C(SC)SC)nn1C [M 8825] | 100 | 100 | 100 | 100 | 70 to 99 | 100 | 100 | 0 to 9 | 10 to 69 | 100 | 100 | 10 to 69 | – |
| CC=Cc1nc(OP(=S)(OCC)OCC)n(C(C)C)n1 [M 9137] | 100 | 100 | 100 | – | – | 100 | 100 | – | 10 to 69 | 10 to 69 | 100 | – | Activity (mortality class), Macrosiphum E. [8]: ++ (100% of mortality); Activity (mortality class), Tetranychus U. (eggs) [9]: ++ (100% of mortality) |
| CCOP(=S)(OCC)Oc1nc(C(O)CSC)nn1-c1ccccc1 (stereo not shown) [M 9173] | – | – | – | – | – | – | – | – | – | – | – | – | mortality at 0.1 % [2, 10]: 100%; mortality at 0.1 % [3, 11]: 100%; Activity (mortality class), Macrosiphum E. [8]: ++ (100% of mortality); mortality at 0.1 % [4, 12]: 100%; mortality at 2 ppm [5, 13]: 100%; mortality at 1 g/m2 [6]: 100%; mortality at 0.1 % [7, 14]: 100% |
